Paper PMC11420065 (Molecular Psychiatry, 2024)

How the values were obtained:
[1] = test system: D-myo-inositol 1 monophosphate (IP1); test: IP1 levels in frontal cortex of treated mice (IP-One HTRF); details: 1 h
Experimental: C57BL/6 wild-type males, sourced from JAX farms, 11 weeks of age at the time of experiment, were housed in groups of up to five littermates with food and water ad libitum in a vivarium with a 12 h light/dark cycle at 23 °C. Animals were allowed to get accustomed to the vivarium at least 1 week prior to the experiment. […] All efforts were made to minimize animal suffering and the number of animals used.
Briefly, frontal cortices were harvested and homogenized in a 10 µL per 1 mg of tissue solution consisting of 10% IP-One Gq Kit Lysis and Detection Buffer in Stimulation Buffer. The clarified homogenates (17,000 × g for 15 min) were plated in duplicate by sequential addition of 2 µL to a 18 µL mix of detection reagents in Lysis and Detection Buffer.
The mice used in the studies came from the same colony and were split randomly between the experimental groups. The investigators were blinded to group allocation during compounds administration to mice. Data are presented as mean ± SEM of 5 mice for each treated group.
Data are normalized in fold of IP1 production in vehicle-treated mice (n = 5 animals per treatment condition; one-way ANOVA followed by Dunnett’s post hoc: compared to vehicle at 1h: *p < 0.1 and **p < 0.01 compared to vehicle).

[2] = target: T1, human 5-HT2AR (Homo sapiens, UniProt P28223); test: EMTA ebBRET biosensor, agonist mode, β-arrestin recruitment; details: baseline vs maximal response, words
Experimental: (§1) For recruitment of the β-arrestins, cells were transfected with the receptor, β-arrestin1-RlucII or β-arrestin2-RlucII, GRK2 and rGFP-CAAX.
(§2) For in vitro experiments, curves fitting was conducted using GraphPad Prism 9 (version 9.0.0). Concentration response curves were obtained using a three-parameter logistic nonlinear regression model and the results are expressed as mean ± SEM of at least three independent experiments. […] Ligand-promoted BRET (ΔBRET) was determined by subtracting the BRET ratio of the vehicle condition from the BRET ratio of the ligand-treated conditions.

[3] = target: T1, human 5-HT2AR; test: EMTA ebBRET biosensor, agonist mode, Gαi/o/z family (Rap1GAP-RlucII/rGFP-CAAX); details: for Emax (%) ± SEM: normalized as % response of 5-HT, NA: no activity
Experimental: as §1, §2

[4] = target: T1, human 5-HT2AR
Experimental: as §1, §2

[5] = target: T1, human 5-HT2AR; test: EMTA ebBRET biosensor, agonist mode, Gαq family (p63-RlucII/rGFP-CAAX); details: normalized as % response of 5-HT, NA: no activity
Experimental: as §1, §2

T1 sequence (P28223 whole entry): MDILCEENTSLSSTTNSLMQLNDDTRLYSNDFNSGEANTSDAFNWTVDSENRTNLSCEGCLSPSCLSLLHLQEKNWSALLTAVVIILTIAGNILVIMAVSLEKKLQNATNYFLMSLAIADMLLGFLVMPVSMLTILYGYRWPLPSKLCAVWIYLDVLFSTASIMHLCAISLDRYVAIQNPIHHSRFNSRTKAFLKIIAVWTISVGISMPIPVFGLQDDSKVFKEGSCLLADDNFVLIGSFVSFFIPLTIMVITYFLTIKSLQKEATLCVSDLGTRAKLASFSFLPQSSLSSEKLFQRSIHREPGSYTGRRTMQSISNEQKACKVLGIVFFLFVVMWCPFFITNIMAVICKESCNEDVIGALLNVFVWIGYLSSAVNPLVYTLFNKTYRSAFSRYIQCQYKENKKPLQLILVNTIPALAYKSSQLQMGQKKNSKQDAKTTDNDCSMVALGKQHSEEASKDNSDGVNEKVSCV

% inhibition ± SEM [4] [%] | Emax (%) ± SEM ([5]; Gα11) [%] | Emax (%) ± SEM ([5]; Gα14) [%] | Emax (%) ± SEM ([5]; Gα15) [%] | Emax (%) ± SEM ([5]; Gαq) [%] | Emax (%) ± SEM ([3]; Gαi1) [%] | Emax (%) ± SEM ([3]; Gαi2) [%] | Emax (%) ± SEM ([3]; Gαi3) [%] | Emax (%) ± SEM ([3]; GαoA) [%] | Emax (%) ± SEM ([3]; GαoB) [%] | Emax (%) ± SEM ([3]; Gαz) [%] | Structure (SMILES) | increase in IP1 levels compared to the vehicle condition ([1]; 2 mg/Kg i.p.) [%] | recruitment of β-arrestin1 [2] | activation at Gαi1 and Gαz [3] | reduction in IP1 ([1]; 3 mg/Kg i.p., vs vehicle) [%] | activation at the Gαi/o/z family ([3]; agonist mode, baseline vs maximal response, words)
 |  |  |  |  |  |  |  |  |  |  | O=C1CCc2ccc(OCCCCN3CCN(c4cccc(Cl)c4Cl)CC3)cc2N1 [Aripiprazole, aripiprazole] | 10.5 ± 1.6 | very weak yet statistically significant recruitment | very weak yet statistically significant activation |  | 
 |  |  |  |  |  |  |  |  |  |  | Cc1nc2n(c(=O)c1CCN1CCC(c3noc4cc(F)ccc34)CC1)CCCC2 [Risperidone, risperidone] |  |  |  | 9.2 ± 1.2 | 
> 50 | 70.72 ± 4.97 | 68.10 ± 3.05 | 13.93 ± 0.53 | 67.99 ± 4.29 | 12.72 ± 3.42 | 11.72 ± 2.50 | 16.05 ± 2.57 | 11.59 ± 2.44 | 4.32 ± 2.16 | 9.02 ± 0.88 | CN(C)C(=O)N[C@H]1CC[C@H](CCN2CCN(c3cccc(Cl)c3Cl)CC2)CC1 [Cariprazine, cariprazine] |  | did not |  |  | did not show statistically significant activation
